Test results taken from patent publication US12077503B2, “Substituted cyclic amides and their use as herbicides” (FMC CORPORATION, priority 2015, dated 2024).

Legend:
Assay type in all cases: in vivo
[1] = system: corn (Zea mays); test: Test A postemergence; conditions: Zea mays, post-emergence, 240 h, postemergence, read-out: Corn plant response rating
In short: (§1)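 Greenhouse, ~10 d after spray; visual injury vs untreated controls, 0 = no effect, 100 = complete control. Preemergence: directed soil spray over planted seeds. Postemergence: plants 2–10 cm, 1–2 leaf stage. Loam/sand blend. Compound in non-phytotoxic solvent with surfactant.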

[2] = system: barnyardgrass (Echinochloa crus-galli); test: Test A postemergence; conditions: Echinochloa crus-galli, post-emergence, 240 h, postemergence, read-out: Barnyardgrass plant response rating
In short: as §1

[3] = system: wheat (Triticum aestivum); test: Test A postemergence; conditions: Triticum aestivum, post-emergence, 240 h, postemergence
In short: as §1

[4] = system: pigweed (Amaranthus retroflexus); test: Test A postemergence; conditions: Amaranthus retroflexus, post-emergence, 240 h, postemergence
In short: as §1

[5] = system: Galium (catchweed bedstraw, Galium aparine); test: Test A postemergence; conditions: Galium, post-emergence, 240 h, postemergence, read-out: Galium plant response rating
In short: as §1

[6] = system: ryegrass, Italian (Italian ryegrass, Lolium multiflorum); test: Test A postemergence; conditions: Lolium multiflorum, post-emergence, 240 h, postemergence
In short: as §1

[7] = system: Kochia (Kochia scoparia); test: Test A postemergence; conditions: Bassia scoparia, post-emergence, 240 h, postemergence, read-out: Kochia plant response rating
In short: as §1

[8] = system: ragweed (common ragweed, Ambrosia elatior); test: Test A postemergence; conditions: Ambrosia artemisiifolia, post-emergence, 240 h, postemergence
In short: as §1

[9] = system: giant foxtail (Setaria faberii); test: Test A postemergence; conditions: Setaria faberi, post-emergence, 240 h, postemergence, read-out: Foxtail, Giant plant response rating
In short: as §1

[10] = system: blackgrass (Alopecurus myosuroides); test: Test A postemergence; conditions: Alopecurus myosuroides, post-emergence, 240 h, postemergence, read-out: Blackgrass plant response rating
In short: as §1

[11] = system: barnyardgrass (Echinochloa crus-galli); test: Test A preemergence; conditions: Echinochloa crus-galli, pre-emergence, 240 h, preemergence, 0 to 100 scale where 0 is no effect and 100 is complete control, read-out: Barnyardgrass plant response rating
In short: as §1

[12] = system: pigweed (Amaranthus retroflexus); test: Test A preemergence; conditions: Amaranthus retroflexus, pre-emergence, 240 h, preemergence, 0 to 100 scale where 0 is no effect and 100 is complete control, read-out: Pigweed plant response rating
[13] = system: ryegrass, Italian (Italian ryegrass, Lolium multiflorum); test: Test A preemergence; conditions: Lolium multiflorum, pre-emergence, 240 h, preemergence, 0 to 100 scale where 0 is no effect and 100 is complete control, read-out: Ryegrass, Italian plant response rating
In short: as §1

[14] = system: Kochia (Kochia scoparia); test: Test A preemergence; conditions: Bassia scoparia, pre-emergence, 240 h, preemergence, 0 to 100 scale where 0 is no effect and 100 is complete control, read-out: Kochia plant response rating
In short: as §1

[15] = system: ragweed (common ragweed, Ambrosia elatior); test: Test A preemergence; conditions: Ambrosia artemisiifolia, pre-emergence, 240 h, preemergence, 0 to 100 scale where 0 is no effect and 100 is complete control, read-out: Ragweed plant response rating
In short: as §1

[16] = system: giant foxtail (Setaria faberii); test: Test A preemergence; conditions: Setaria faberi, pre-emergence, 240 h, preemergence, 0 to 100 scale where 0 is no effect and 100 is complete control, read-out: Foxtail, Giant plant response rating
In short: as §1

[17] = 125 g ai/ha, visual injury on 0 to 100 scale (0 no effect, 100 complete control), approx. 10 d
[18] = 500 g ai/ha, 0 to 100 scale, 0 is no effect, 100 is complete control

## CN1C[C@H](c2ccc(C(F)(F)F)cc2)[C@@](F)(C(=O)Nc2cccc(F)c2F)C1=O (racemic) [Compound 1151]
[1]; [17]
  plant injury at 125 g/ha: 60%
[1]; [18]
  plant injury at 500 g/ha: 80%
[2]; [17]
  pest or weed control at 125 g/ha: 80%
[2]; [18]
  pest or weed control at 500 g/ha: 90%
[3]; 125 g ai/ha, visual injury vs untreated controls after approx. 10 d, 0 = no effect, 100 = complete control, read-out: Wheat plant response rating (0 to 100 scale)
  plant injury at 125 g/ha: 40%
[3]; 500 g ai/ha, 0 to 100 scale, 0 is no effect, 100 is complete control, read-out: Wheat plant response rating
  plant injury at 500 g/ha: 60%
[4]; 125 g ai/ha, visual injury vs untreated controls after approx. 10 d, 0 = no effect, 100 = complete control, read-out: Pigweed plant response rating (0 to 100 scale)
  pest or weed control at 125 g/ha: 20%
[4]; 500 g ai/ha, 0 to 100 scale, 0 is no effect, 100 is complete control, read-out: Pigweed plant response rating
  pest or weed control at 500 g/ha: 80%
[5]; [17]
  pest or weed control at 125 g/ha: 20%
[5]; [18]
  pest or weed control at 500 g/ha: 60%
[6]; 125 g ai/ha, visual injury vs untreated controls after approx. 10 d, 0 = no effect, 100 = complete control, read-out: Ryegrass, Italian plant response rating (0 to 100 scale)
  pest or weed control at 125 g/ha: 30%
[6]; 500 g ai/ha, 0 to 100 scale, 0 is no effect, 100 is complete control, read-out: Ryegrass, Italian plant response rating
  pest or weed control at 500 g/ha: 50%
[7]; [17]
  pest or weed control at 125 g/ha: 30%
[7]; [18]
  pest or weed control at 500 g/ha: 60%
[8]; 125 g ai/ha, visual injury vs untreated controls after approx. 10 d, 0 = no effect, 100 = complete control, read-out: Ragweed plant response rating (0 to 100 scale)
  pest or weed control at 125 g/ha: 0%
[8]; 500 g ai/ha, 0 to 100 scale, 0 is no effect, 100 is complete control, read-out: Ragweed plant response rating
  pest or weed control at 500 g/ha: 30%
[9]; [17]
  pest or weed control at 125 g/ha: 70%
[9]; [18]
  pest or weed control at 500 g/ha: 80%
[10]; [17]
  pest or weed control at 125 g/ha: 30%
[10]; [18]
  pest or weed control at 500 g/ha: 60%
[11]; 125 g ai/ha, approx. 10 d
  pest or weed control at 125 g/ha: 90%
[11]; 500 g ai/ha
  pest or weed control at 500 g/ha: 100%
[12]; 125 g ai/ha, approx. 10 d
  pest or weed control at 125 g/ha: 80%
[12]; 500 g ai/ha
  pest or weed control at 500 g/ha: 100%
[13]; 125 g ai/ha, approx. 10 d
  pest or weed control at 125 g/ha: 70%
[13]; 500 g ai/ha
  pest or weed control at 500 g/ha: 70%
[14]; 125 g ai/ha, approx. 10 d
  pest or weed control at 125 g/ha: 70%
[14]; 500 g ai/ha
  pest or weed control at 500 g/ha: 80%
[15]; 125 g ai/ha, approx. 10 d
  pest or weed control at 125 g/ha: 0%
[15]; 500 g ai/ha
  pest or weed control at 500 g/ha: 60%
[16]; 125 g ai/ha, approx. 10 d
  pest or weed control at 125 g/ha: 100%
[16]; 500 g ai/ha
  pest or weed control at 500 g/ha: 100%
